Values of other authors as cited in patent US6531162B1, “Adrenergically-mediated weight loss product” (priority 2002, dated 2003).
Entries after “also recorded” stand apart in the source; their conditions may differ.

Columns and labels:
COMT enzyme = conditions: in-vitro
beta-3 receptors [1] = molecular target: T1, beta-3 receptors (Homo sapiens, UniProt P13945); conditions: in-vitro studies
[2] = green tea versus equivalent dose (50 mg) of caffeine
beta-3 receptors [3] = molecular target: T1, beta-3 receptors; conditions: using beta blocking agents
humans = conditions: after oral dosing
[4] = single doses as high as 21.6 mg or daily cumulative doses as high as 43.2 mg

T1 sequence (P13945 whole entry): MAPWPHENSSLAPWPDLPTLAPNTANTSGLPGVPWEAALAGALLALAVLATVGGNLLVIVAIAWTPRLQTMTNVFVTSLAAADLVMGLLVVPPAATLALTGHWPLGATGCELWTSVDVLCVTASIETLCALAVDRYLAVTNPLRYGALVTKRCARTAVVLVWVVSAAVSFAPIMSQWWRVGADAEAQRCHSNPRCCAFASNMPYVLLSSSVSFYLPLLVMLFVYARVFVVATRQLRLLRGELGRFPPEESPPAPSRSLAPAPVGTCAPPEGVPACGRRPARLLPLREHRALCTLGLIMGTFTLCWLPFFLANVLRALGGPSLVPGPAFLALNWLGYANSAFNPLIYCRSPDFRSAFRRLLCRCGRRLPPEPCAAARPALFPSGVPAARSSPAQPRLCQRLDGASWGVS

In the case of `COc1c(O)cc2c(c1O)[C@@H]1O[C@H](CO)[C@@H](O)[C@H](O)[C@H]1OC2=O` [Bergenin], the “effect on lipogenic actions of insulin” value (fat cells) is listed as “oppose the lipogenic (fat building) actions of insulin”, the “direct stimulation of lipolysis / adrenergic activity” value (fat cells; in-vitro, compound alone) is listed as “does not directly stimulate lipolysis; also recorded: no direct adrenergic activity” and the “enhancement of lipolysis induced by norepinephrine” value (fat cells; in-vitro, with norepinephrine) is listed as “markedly enhances lipolysis; also recorded: increase the lipolytic activity of norepinephrine”.
For `O=C(O[C@@H]1Cc2c(O)cc(O)cc2O[C@@H]1c1cc(O)c(O)c(O)c1)c1cc(O)c(O)c(O)c1` [EGCG], the “inhibition of the COMT enzyme” value (COMT enzyme) is given as “inhibit the COMT enzyme”.
For `NCC(O)c1ccc(O)cc1` (stereo not shown) [Octopamine], the “beta-3 agonist activity and selectivity” value (beta-3 receptors [1]) is listed as “potent selective beta-3 agonist; also recorded: selective for this receptor”.
For `Cn1c(=O)c2c(ncn2C)n(C)c1=O` [caffeine], the “24 hour energy expenditure” value [2] is given as “no noticeable effect”.
For `CN[C@@H](C)[C@H](O)c1ccccc1` [ephedrine], the “share of ephedrine-induced thermogenesis accounted for by beta-3 agonist activity” value (beta-3 receptors [3]) is listed as “at least 40%”.
In the case of `COC(=O)[C@@H]1[C@H]2C[C@H]3c4[nH]c5ccccc5c4CCN3C[C@@H]2CC[C@@H]1O` [Yohimbine], the lipolysis in humans (humans) is given as “capable of increasing lipolysis”, the “impact on blood pressure or heart rate” value [4] is given as “no significant impact” and the tolerability [4] is given as “well tolerated”.
